Here are results for 11 molecules from patent publication US11795204B2 (Zealand Pharma A/S, priority 2012, dated 2023).

Series [1] can be described thus: Chemical stability assessment (RP-HPLC normalized purity). The settings on record: for Normalized purity pH 4.0 after 14 days: 1 mg/ml in 50 mM acetate buffer pH 4.0, 40° C.; for Normalized purity pH 7.5 after 14 days: 1 mg/ml in 50 mM phosphate buffer pH 7.5, 40° C. Format: physicochemical. The procedure: Samples were placed in glass vials and incubated at 40° C. The samples were analysed by reverse-phase HPLC on a C18 column with gradient elution using an acetonitrile/trifluoroacetic acid/water eluent system. The area-percentage (area-%) of the main peak after incubation time T=t (relative to time T=0) was detected by UV spectrometry at 220 nm. The purity was first determined as follows: Purity(area-%)=(area of main peak/total area of all peaks)×100. […] Normalized purity values in Table 2 were determined after 14 days of incubation.

The next series can be described thus: physchem. The settings on record: pH 7.5. In outline: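 Peptide stock 2 mg/ml (A280-quantified) in water at pH 2.5, diluted 1:1 into 100 mM acetate pH 4.0 or 100 mM phosphate pH 7.5. Absorbance at 280 and 325 nm read at ambient temperature, single samples (n=1).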
For another series, the target named is T1, human Glucagon-R (Homo sapiens, UniProt P47871).
T1 construct: expressed in transfected cells
In words: Glucagon receptor assay (cAMP induction, AlphaScreen). The settings on record: HEK293 cells expressing the human Glucagon-R, 15 min at 37° C., read-out: GCG-R EC50 in vitro. Format: cell-based. In outline: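 Stable G418-selected clonal cells expressing the receptor were washed, then exposed to rising test peptide concentrations in IBMX-containing assay buffer for 15 min at 37° C. After lysis (≥10 min, room temperature), lysate was incubated 1 h with AlphaScreen donor/acceptor beads and cAMP content read.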

Square brackets hold non-standard residues; d marks the D form. Peptide text beside a SMILES is read from it. Aib = CC(C)(N)C(=O)O A value given as a limit tells only on which side of the number the result lay.

T1 sequence (P47871 26-477): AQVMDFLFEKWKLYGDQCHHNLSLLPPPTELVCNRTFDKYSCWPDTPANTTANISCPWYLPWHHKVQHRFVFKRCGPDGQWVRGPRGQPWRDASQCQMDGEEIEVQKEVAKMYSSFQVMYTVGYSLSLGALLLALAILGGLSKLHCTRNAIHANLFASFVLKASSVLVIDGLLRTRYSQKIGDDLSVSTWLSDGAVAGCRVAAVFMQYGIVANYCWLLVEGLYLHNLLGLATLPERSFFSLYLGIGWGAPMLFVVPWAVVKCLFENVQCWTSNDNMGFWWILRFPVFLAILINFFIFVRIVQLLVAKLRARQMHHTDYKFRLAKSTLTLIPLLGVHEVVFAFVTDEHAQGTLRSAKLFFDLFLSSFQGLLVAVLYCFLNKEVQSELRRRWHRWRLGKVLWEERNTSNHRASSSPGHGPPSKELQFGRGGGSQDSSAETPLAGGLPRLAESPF

As for `CC(C)C[C@H](NC(=O)[C@H](Cc1c[nH]c2ccccc12)NC(=O)[C@H](CCCCN)NC(=O)[C@@H](NC(=O)[C@H](Cc1ccccc1)NC(=O)[C@H](CO)NC(=O)[C@H](CCC(=O)O)NC(=O)[C@H](C)NC(=O)[C@H](CCCNC(=N)N)NC(=O)[C@H](C)NC(=O)C(C)(C)NC(=O)[C@H](CC(=O)O)NC(=O)[C@H](CC(C)C)NC(=O)[C@H](Cc1ccc(O)cc1)NC(=O)[C@H](CCCCN)NC(=O)[C@H](CO)NC(=O)[C@H](Cc1ccc(O)cc1)NC(=O)[C@H](CC(=O)O)NC(=O)[C@H](CO)NC(=O)[C@@H](NC(=O)[C@H](Cc1ccccc1)NC(=O)[C@@H](NC(=O)CNC(=O)[C@H](CCC(N)=O)NC(=O)[C@H](CO)NC(=O)[C@@H](N)Cc1c[nH]cn1)[C@@H](C)O)[C@@H](C)O)C(C)C)C(=O)N[C@@H](CCC(=O)O)C(=O)N[C@@H](CO)C(=O)N[C@H](C(=O)O)[C@@H](C)O` [Compound 15] (H-HSQGTFTSDYSKYLD[Aib]ARAESFVKWLEST-OH), in series [1], the “Normalized purity pH 4.0 after 14 days” value amounted to 89.1% and the “Normalized purity pH 7.5 after 14 days” value amounted to 95.1%. In the series “physchem”, the solubility was at least 1000 µg/mL. Also, the concentration giving a half-maximal response (EC50) on human Glucagon-R is 0.03 nM.

As for `CC(C)C[C@H](NC(=O)[C@H](Cc1c[nH]c2ccccc12)NC(=O)[C@H](CCCCN)NC(=O)[C@@H](NC(=O)[C@H](Cc1ccccc1)NC(=O)[C@H](CO)NC(=O)[C@H](CCC(=O)O)NC(=O)[C@H](C)NC(=O)[C@H](CCCNC(=N)N)NC(=O)[C@H](C)NC(=O)C(C)(C)NC(=O)[C@H](CC(=O)O)NC(=O)[C@H](CC(C)C)NC(=O)[C@H](Cc1ccc(O)cc1)NC(=O)[C@H](CCCCN)NC(=O)[C@H](CO)NC(=O)[C@H](Cc1ccc(O)cc1)NC(=O)[C@H](CC(=O)O)NC(=O)[C@H](CO)NC(=O)[C@@H](NC(=O)[C@H](Cc1ccccc1)NC(=O)[C@@H](NC(=O)[C@@H](C)NC(=O)[C@H](CCC(N)=O)NC(=O)[C@H](CO)NC(=O)[C@@H](N)Cc1c[nH]cn1)[C@@H](C)O)[C@@H](C)O)C(C)C)C(=O)N[C@@H](CCC(=O)O)C(=O)N[C@@H](CO)C(=O)N[C@H](C(=O)O)[C@@H](C)O` [Compound 22] (H-HSQ[dA]TFTSDYSKYLD[Aib]ARAESFVKWLEST-OH), in series [1], the “Normalized purity pH 4.0 after 14 days” value stood at 91.1% and the “Normalized purity pH 7.5 after 14 days” value amounted to 95.3%. Further, the solubility in “physchem” is at least 1000 µg/mL. In addition, the EC50 at human Glucagon-R stood at 0.024 nM.

Take “H-HSQGTFTSDYSKYLDSARAEDFVKWLEET-OH [Compound 2]”: in series [1], the “Normalized purity pH 4.0 after 14 days” value was 83.5% and the “Normalized purity pH 7.5 after 14 days” value was determined as 86.2%. The same molecule yielded a solubility in “physchem” of at least 1000 µg/mL. Moreover, the concentration for a half-maximal effect (EC50) on human Glucagon-R was found to be 0.18 nM.

Consider `CC(C)C[C@H](NC(=O)[C@H](Cc1c[nH]c2ccccc12)NC(=O)[C@H](CCCCN)NC(=O)[C@@H](NC(=O)[C@H](Cc1ccccc1)NC(=O)[C@H](CO)NC(=O)[C@H](CCC(=O)O)NC(=O)[C@H](C)NC(=O)[C@H](CCCNC(=N)N)NC(=O)[C@H](CCCNC(=N)N)NC(=O)C(C)(C)NC(=O)[C@H](CC(=O)O)NC(=O)[C@H](CC(C)C)NC(=O)[C@H](Cc1ccc(O)cc1)NC(=O)[C@H](CCCCN)NC(=O)[C@H](CO)NC(=O)[C@H](Cc1ccc(O)cc1)NC(=O)[C@H](CC(=O)O)NC(=O)[C@H](CO)NC(=O)[C@@H](NC(=O)[C@H](Cc1ccccc1)NC(=O)[C@@H](NC(=O)CNC(=O)[C@H](CCC(N)=O)NC(=O)[C@H](CO)NC(=O)[C@@H](N)Cc1c[nH]cn1)[C@@H](C)O)[C@@H](C)O)C(C)C)C(=O)N[C@@H](CCC(=O)O)C(=O)N[C@@H](CO)C(=O)N[C@H](C(=O)O)[C@@H](C)O` [Compound 25] (H-HSQGTFTSDYSKYLD[Aib]RRAESFVKWLEST-OH), for which, in series [1], the “Normalized purity pH 4.0 after 14 days” value was determined as 93.8% and the “Normalized purity pH 7.5 after 14 days” value was determined as 89.8%. Also, in the series “physchem”, the solubility was at least 1000 µg/mL. Besides, the concentration giving a half-maximal response (EC50) at human Glucagon-R came out at 0.0066 nM.

On to “H-HSQGTFTSDLSKYLDSARAEDFVKWLEST-OH [Compound 11]”, for which, in series [1], the “Normalized purity pH 4.0 after 14 days” value was 78.6% and the “Normalized purity pH 7.5 after 14 days” value came to 89.9%. Further, in the series “physchem”, the solubility was at least 1000 µg/mL. The EC50 on human Glucagon-R is 0.11 nM.

Consider “H-HSQGTFTSDYSKYLDSARAEDFVAWLEST-OH [Compound 4]”, for which, in series [1], the “Normalized purity pH 4.0 after 14 days” value is reported as 80.5% and the “Normalized purity pH 7.5 after 14 days” value was 84.6%. In “physchem”, this molecule returned a solubility of at least 1000 µg/mL. At human Glucagon-R, the EC50 turned out to be 0.34 nM.

Turning to “H-HSQGTFTSDYSKYLESARAESFVKWLEST-OH [Compound 16]”, the “Normalized purity pH 4.0 after 14 days” value in series [1] worked out at 89.1%. For the same molecule, in “physchem”, the solubility was at least 1000 µg/mL. The EC50 on human Glucagon-R was found to be 0.39 nM.

Consider “H-HSQGTFTSDYSKYLDEARAKDFVEWLEKT-OH [Compound 5]”, for which, in series [1], the “Normalized purity pH 4.0 after 14 days” value is on record as 91.8% and the “Normalized purity pH 7.5 after 14 days” value came to 89.6%. Besides, in the series “physchem”, the solubility was at least 1000 µg/mL. Also, at human Glucagon-R, the EC50 came to 0.17 nM.

On to “H-HSQGTFTSDYSKYLDKARAEDFVKWLEST-OH [Compound 3]”, for which, in series [1], the “Normalized purity pH 4.0 after 14 days” value worked out at 85.0% and the “Normalized purity pH 7.5 after 14 days” value was determined as 86.5%. In the series “physchem”, this molecule showed a solubility of at least 1000 µg/mL. Further, the EC50 on human Glucagon-R came out at 0.03 nM.

In the case of `CC(C)C[C@H](NC(=O)[C@H](Cc1c[nH]c2ccccc12)NC(=O)[C@H](CCCCN)NC(=O)[C@@H](NC(=O)[C@H](Cc1ccccc1)NC(=O)[C@H](CO)NC(=O)[C@H](CCC(=O)O)NC(=O)[C@H](C)NC(=O)[C@H](CCCNC(=N)N)NC(=O)[C@H](C)NC(=O)C(C)(C)NC(=O)[C@H](CC(=O)O)NC(=O)[C@H](CC(C)C)NC(=O)[C@H](Cc1ccc(O)cc1)NC(=O)[C@H](CCCCN)NC(=O)[C@H](CO)NC(=O)[C@H](Cc1ccc(O)cc1)NC(=O)[C@H](CC(=O)O)NC(=O)[C@H](CO)NC(=O)[C@@H](NC(=O)[C@H](Cc1ccccc1)NC(=O)[C@@H](NC(=O)CNC(=O)[C@H](CCC(N)=O)NC(=O)[C@H](CO)NC(=O)[C@@H](N)Cc1c[nH]cn1)[C@@H](C)O)[C@@H](C)O)C(C)C)C(=O)N[C@@H](CCC(=O)O)C(=O)N[C@@H](CO)C(=O)N[C@@H](C)C(=O)O` [Compound 30] (H-HSQGTFTSDYSKYLD[Aib]ARAESFVKWLESA-OH), in series [1], the “Normalized purity pH 4.0 after 14 days” value turned out to be 88.6% and the “Normalized purity pH 7.5 after 14 days” value was found to be 91.4%. The molecule further gave a solubility in the series “physchem” of at least 1000 µg/mL. Besides, on human Glucagon-R, the EC50 was determined as 0.016 nM.

Take `CNC(=O)CC[C@H](NC(=O)[C@H](CO)NC(=O)[C@@H](N)Cc1c[nH]cn1)C(=O)NCC(=O)N[C@H](C(=O)N[C@@H](Cc1ccccc1)C(=O)N[C@H](C(=O)N[C@@H](CO)C(=O)N[C@@H](CC(=O)O)C(=O)N[C@@H](Cc1ccc(O)cc1)C(=O)N[C@@H](CO)C(=O)N[C@@H](CCCCN)C(=O)N[C@@H](Cc1ccc(O)cc1)C(=O)N[C@@H](CC(C)C)C(=O)N[C@@H](CC(=O)O)C(=O)NC(C)(C)C(=O)N[C@@H](C)C(=O)N[C@@H](CCCNC(=N)N)C(=O)N[C@@H](C)C(=O)N[C@@H](CCC(=O)O)C(=O)N[C@@H](CO)C(=O)N[C@@H](Cc1ccccc1)C(=O)N[C@H](C(=O)N[C@@H](CCCCN)C(=O)N[C@@H](Cc1c[nH]c2ccccc12)C(=O)N[C@@H](CC(C)C)C(=O)N[C@@H](CCC(=O)O)C(=O)N[C@@H](CO)C(=O)N[C@H](C(=O)O)[C@@H](C)O)C(C)C)[C@@H](C)O)[C@@H](C)O` [Compound 26] (H-HSE(NHMe)GTFTSDYSKYLD[Aib]ARAESFVKWLEST-OH): in series [1], the “Normalized purity pH 4.0 after 14 days” value turned out to be 90% and the “Normalized purity pH 7.5 after 14 days” value worked out at 93.9%. Also, in “physchem”, the solubility was at least 1000 µg/mL. For the same molecule, the EC50 on human Glucagon-R came out at 0.0069 nM.
